{"source": "patent US20240165165A1", "about": "“PHARMACEUTICAL COMPOSITIONS AND THEIR METHODS OF USE” (The Trustees of Indiana University, priority 2021, published 2024)", "key": {"[1]": {"tested_on": "EO771 mammary tumor cells in the lung of C57BL/6 mice", "assay": "In vivo extravasation assay", "parameters": "species or system mouse", "settings": "co-injection into tail vein, 48 h", "protocol": "To evaluate the effects of CMs for tumor invasion, the in vivo extravasation assay was conducted. C57BL/6 female mice (5 mice per group) received an injection of 50 μl of fluorescently labeled EO771 cells (1.0×10^6 cells) into the lateral tail veins. Fluorescently labeled EO771 cells were prepared by culturing them with a green fluorescent dye (#4705, Sartorius, Gottingen, Germany) for 20 min at 37° C. Cells were then centrifuged with 1000 rpm for 5 min for harvesting the pellet. The pellet was re-suspended in PBS (placebo group) or osteocyte-derived CM (A5 CM group). Mice will be sacrificed after 48 h for histologically identifying extravascular tumor cells in the lung."}, "[2]": {"tested_on": "EO771 cells in the inside of the skull", "assay": "Skull diffusion assay, MTT-based viability", "type": "cell-based, mouse", "settings": "agent in the outside of the skull", "protocol": "(§1) Skull diffusion assay. The usage of human breast cancer tissues was approved by the Indiana University Institutional Review Board, and informed consent for research use was obtained from all patients. The experiment was performed following Indiana University's human research protection program policies. A breast cancer tissue (— 1 g; ER/PR+, HER2+), received from Simon Cancer Center Tissue Procurement Core, was manually fragmented with a scalpel into small pieces. Mouse skulls were isolated and rinsed with PBS. They were placed in a 24-well plate with the head top facing the well surface and tumor cells or breast cancer tissue fragments were grown. The well was filled with the control medium or osteocyte-derived CM. Fluphenazine (Sigma-Aldrich), a dopamine receptor antagonist that suppresses the growth of mammary tumor cells, was employed as a positive control to suppress tumor growth."}, "[3]": {"tested_on": "human breast cancer fragments in the inside of the skull", "assay": "Skull diffusion assay, tissue fragments", "type": "cell-based", "settings": "agent in the outside of the skull", "protocol": "as §1"}, "[4]": {"tested_on": "phosphorylated Akt in MSCs", "assay": "Western blot of phosphorylated Akt", "type": "cell-based, mouse", "protocol": "(§2) Western blot analysis and protein array analysis. Western blot analysis was conducted using the procedure previously described. Antibodies against Lrp5, Runx2, Snail, TGFβ, sclerostin, Calr, p-eIF2α, eIF2α (Cell Signaling, Danvers, MA, USA), LIF, Trail (Novus Biologicals, Centennial, CO, USA), MMP9, NFATc1, cathepsin K (Santa Cruz Biotechnology, Dallas, TX, USA), p53, CXCL2, Ppib (Invitrogen, Carlsbad, CA, USA), Hsp90ab1 (Abcam, Cambridge, UK), and β-actin (Sigma, Saint Louis, MO, USA) were used. A proteome profiler mouse XL cytokine array kit (R&D Systems, Minneapolis, MN, USA) was also employed, and the expression of 111 cytokines and chemokines in MSC-derived CM was determined."}, "4T1.2 cells": {"tested_on": "4T1.2 cells", "assay": "Western blot of proteins in treated tumor cells", "type": "cell-based, mouse", "settings": "for tumor-promoting genes (Lrp5, MMP9, Runx2, TGFβ, Snail) in 4T1.2 cells: Western blot", "protocol": "as §2"}, "[5]": {"tested_on": "4T1.2 mammary tumor cells", "assay": "Scratch-based migration assay", "type": "cell-based, mouse", "protocol": "Two-dimensional motility assay. A wound-healing scratch motility assay was performed to evaluate 2-dimensional cell motility. Approximately 4×10^5 cells were seeded in 12-well plates. After cell attachment, a plastic pipette tip was used to scratch a gap on the cell layer. Floating cells were removed, and CM was added. Images of the cell-free scratch zone were obtained via an inverted microscope at 0 h, and the areas newly occupied with cells were determined 24-48 h after scratching. The areas were quantified with IMAGE J (National Institutes of Health, Bethesda, MD, USA).\nIn vitro assays. Cellular viability was examined using an MTT assay (Invitrogen, Carlsbad, CA, USA) with the procedure previously described, as well as an EdU assay with a fluorescence-based cell proliferation kit (Thermo-Fisher, Waltham, MA, USA). […]"}, "[6]": {"tested_on": "4T1.2 mammary tumor cells", "assay": "MTT viability assay", "type": "cell-based, mouse", "from_the_text": "(§3) In vitro assays. Cellular viability was examined using an MTT assay (Invitrogen, Carlsbad, CA, USA) with the procedure previously described, as well as an EdU assay with a fluorescence-based cell proliferation kit (Thermo-Fisher, Waltham, MA, USA). The recombinant proteins employed included Filamin A, Pkm, Pdia3, Tpm4, Anxa2, Eef1a1, Cts1, Nme2, Dcn, Calr, Aldoa, Calm1, Tpm3, Ppib, Myh9, Ywhae, Hspa5, Hsp90aa1 (MBS962910, MBS8249600, MBS2010131, MBS145304, MBS2009095, MBS2033168, MBS143355, MBS145412, MBS2557309, MBS2009125, MBS8248528, MBS2018713, MBS144696, MBS2009092, MBS717396, MBS143242, MBS806904, MBS142709; MyBioSource, San Diego, CA, USA), Actin Gamma 1, Actn4, Hspa8, Vimentin (H00000071-P01, H00000081-P01, NBP1-30278, NBP2-35139; Novus, Littleton, CO, USA), and Hsp90ab1 (OPCA05157; Aviva system biology, San Diego, CA, USA). A TRANSWELL® chamber assay was conducted to detect invasive cellular motility, and a wound-healing scratch assay was utilized to evaluate 2-dimensional migratory behavior. The overexpression of Akt, Lrp5, β-catenin, Snail, Calr, and Ppib was conducted by transfecting plasmids (#10841, #115907, #31785, #31697, #51161, #36123; Addgene, Cambridge, MA, USA). […]"}, "[7]": {"tested_on": "4T1.2 mammary tumor cells", "assay": "EdU proliferation assay", "type": "cell-based, mouse", "protocol": "EdU assay. Approximately 2,000 cells were seeded in 96-well plates on day 1. CM was added on day 2 and cellular proliferation was examined using a fluorescence-based cell proliferation kit (CLICK-IT™ EDU ALEXA FLUOR™ 488 Imaging Kit; Thermo-Fisher, Waltham, MA, USA) on day 4. After fluorescent labeling, the number of fluorescently labeled cells was counted and the ratio to the total number of cells was determined.\nas §3, with “USA).” for “USA). A TRANSWELL® chamber assay was conducted to detect invasive cellular motility, and a wound-healing scratch assay was utilized to evaluate 2-dimensional migratory behavior. The overexpression of Akt, Lrp5, β-catenin, Snail, Calr, and Ppib was conducted by transfecting plasmids (#10841, #115907, #31785, #31697, #51161, #36123; Addgene, Cambridge, MA, USA).”"}, "[8]": {"tested_on": "4T1.2 mammary tumor cells", "assay": "TRANSWELL invasion assay", "type": "cell-based, mouse", "from_the_text": "as §3"}, "EO771 cells": {"tested_on": "EO771 cells", "assay": "Western blot of proteins in treated tumor cells", "type": "cell-based, mouse", "protocol": "Western blot analysis and mass spectrometry. Western blot analysis was conducted using known procedures. Antibodies were used against ANXA1, β-catenin, caspase 3, Lrp5, Lrp6, Runx2, Sclerostin, Snail, TGFβ, NFATc1, cathepsin K (Cell Signaling, Danvers, MA, USA), DMP1, ANXA6, CXCL5 (Abcam, Cambridge, MA, USA), M-CSF, MMP9, OPN, TPM4 (Santa Cruz, Dallas, TX, USA), WISP1 (R&D systems, Minneapolis, MN, USA), β-actin (Sigma, Saint Louis, MO, USA), LIMA1, Trail (Novus, Centennial, CO, USA), p53 and CXCL1 (Invitrogen, Carlsbad, California, USA), and DSP (ProteinTech, Rosemont, IL, USA). The expression levels of Sclerostin and Lrp5 in CM were detected by ELISA (My BioSource, San Diego, CA, USA). Proteins from A5 osteocyte CM, Y4 osteocyte CM, and osteoclast control CM (RAW264.7 cells) were analyzed by the HF Hybrid Quadrupole Orbitrap mass spectrometry. Among 549 identified proteins, 49 proteins presented higher expression levels in A5 CM than Y4 CM and control CM. […]\nWestern blot analysis and protein array analysis. […] A proteome profiler mouse XL cytokine array kit (R&D Systems, Minneapolis, MN, USA) was also employed, and the expression of 111 cytokines and chemokines in MSC-derived CM was determined. […]"}, "[9]": {"assay": "Estimation of the diffusion coefficient through the skull", "type": "physicochemical, mouse", "from_the_text": "Estimation of the diffusion coefficient through the skull. Suppose that the two aqueous reservoirs are separated by a skull and the solute (albumin) in the first reservoir with the volume V1 is transferred to the second reservoirs with the volume V2. When the volume of the skull is negligible, the change in the solute in the first reservoir is approximated, using the quasi-steady-state flux, N according to Eq. (1) and Eq. (2):\nWhere t=time, and c 1 (t) and c 2 (t)=concentrations in the first and second reservoirs, respectively, A=skull surface area, D=diffusion coefficient through the skull, and L=skull thickness. Since the decrease in the first reservoir is equivalent to the gain in the second reservoir, Eq. (3) is arrived at:\nIf the initial concentrations are c1(t=0)=c0 and c2 (t=0)=0, the concentration c1 is predicted as a function of time according to Eq. (4):\nThe diffusion coefficient of albumin in the skull was estimated as 3.30×10^−8 cm^2/s from the slope (0.7157) of the best-fit line of Eq. (4) in FIG. 36B. Of note, V1=265 μl, V2=65 μl, c0=10 μg/μ1, A=188 mm^2, and L=60 μm."}}, "data": [{"compound": "COc1cccc(-c2cc(NCc3ccc4c(c3)OCO4)nc(N)n2)c1", "note": "[BML284]", "values": [{"measurement": "number of EO771 tumor cells in the lung", "setting": "[1]", "value": "Reduction"}]}, {"compound": "OCCN1CCN(CCCN2c3ccccc3Sc3ccc(C(F)(F)F)cc32)CC1", "note": "[Fluphenazine]", "values": [{"measurement": "viability of EO771 tumor cells in the inside of the skull", "setting": "[2]", "value": "significantly decreased"}, {"measurement": "size of human breast cancer fragments in the inside of the skull", "setting": "[3]", "value": "significantly shrunk"}]}, {"compound": "Oc1cc2c(cc1O)C(Cc1cccc3ccccc13)NCC2", "note": "(stereo not shown) [YS49]", "values": [{"measurement": "phosphorylated Akt in MSCs", "setting": "[4]", "value": "elevated"}]}, {"compound": "Hsp90aa1: Hsp90aa1 recombinant protein", "values": [{"measurement": "tumor-promoting genes (Lrp5, MMP9, Runx2, TGFβ, Snail) in 4T1.2 cells", "setting": "4T1.2 cells", "value": "did not alter"}]}, {"compound": "Hsp90ab1: recombinant heat shock protein 90 alpha family class B member 1", "values": [{"measurement": "scratch-based migration of 4T1.2 cells", "setting": "[5]", "value": "reduced"}, {"measurement": "MTT-based viability of 4T1.2 cells", "setting": "[6]", "value": "Significant reduction"}, {"measurement": "tumor-promoting genes (Lrp5, MMP9, Runx2, TGFβ, Snail) in 4T1.2 cells", "setting": "4T1.2 cells", "value": "downregulated"}]}, {"compound": "Ppib: recombinant peptidylprolyl isomerase B", "values": [{"measurement": "EdU-based proliferation of 4T1.2 cells", "setting": "[7]", "value": "significantly inhibited"}, {"measurement": "MTT-based viability of 4T1.2 cells", "setting": "[6]", "value": "Significant reduction"}, {"measurement": "phosphorylation level of eIF2α in 4T1.2 cells", "setting": "4T1.2 cells", "value": "elevated"}, {"measurement": "tumor-promoting genes (Lrp5, MMP9, Runx2, TGFβ, Snail) in 4T1.2 cells", "setting": "4T1.2 cells", "value": "suppressed"}, {"measurement": "TRANSWELL invasion of 4T1.2 cells", "setting": "[8]", "value": "significantly inhibited"}]}, {"compound": "TGFβ", "values": [{"measurement": "tumor-promoting/tumorigenic proteins (Lrp5, MMP9, Runx2, TGFβ, Snail, IL1β etc.) in EO771 cells", "setting": "EO771 cells", "value": "increased"}]}, {"compound": "albumin: bovine serum albumin, solute for skull diffusion", "values": [{"measurement": "diffusion coefficient across the skull relative to aqueous solution, fold smaller", "setting": "[9]", "value": "approximately 20 fold"}, {"measurement": "diffusion coefficient across the skull", "setting": "[9]; murine skull, estimated from slope of Eq. (4)", "value": "3.30×10^−8 cm^2/s"}]}]}
